Experimental findings from patent US20230365592A1 (Agios Pharmaceuticals, Inc., priority 2022, published 2023) are described below.

The target in this experiment is T1, human PAH with the R408W mutation (Homo sapiens, UniProt P00439, R408W).
T1 construct: expressed in transfected cells
T1 sequence (P00439 1-452 R408W): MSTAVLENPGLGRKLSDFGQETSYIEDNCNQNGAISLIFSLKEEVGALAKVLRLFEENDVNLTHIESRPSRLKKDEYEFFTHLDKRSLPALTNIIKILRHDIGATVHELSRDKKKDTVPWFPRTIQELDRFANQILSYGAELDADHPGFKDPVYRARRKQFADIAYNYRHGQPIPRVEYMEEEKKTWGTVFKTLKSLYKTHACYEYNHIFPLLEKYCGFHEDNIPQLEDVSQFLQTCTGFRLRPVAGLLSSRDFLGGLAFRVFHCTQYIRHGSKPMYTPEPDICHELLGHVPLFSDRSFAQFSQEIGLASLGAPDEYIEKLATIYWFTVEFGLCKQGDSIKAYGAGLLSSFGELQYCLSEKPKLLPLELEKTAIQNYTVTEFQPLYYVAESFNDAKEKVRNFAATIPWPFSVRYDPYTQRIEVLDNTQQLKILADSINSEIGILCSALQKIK
The experiment can be described thus: Cell Based Phenylalanine Flux Assay.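 Note: after compound treatment, cells received sepiapterin plus isotope-labelled Phenylalanine for 4 hours, then labelled Tyrosine in the medium was quantified, 10-point 2-fold dilution series run in duplicate.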 Particulars: A375 cells expressing human PAH R408W; 24 hrs compound incubation; 13C-Tyrosine by LC-MS; average where tested multiple times; read-out: AC50.
For `O=C(c1nc2ccccc2s1)N1CCc2[nH]cnc2[C@H]1c1cc2c(C(F)F)cccn2n1` [Example 2022, (S)-benzo[d]thiazol-2-yl(4-(4-(difluoromethyl)pyrazolo[1,5-a]pyridin-2-yl)-1,4,6,7-tetrahydro-5H-imidazo[4,5-c]pyridin-5-yl)methanone], the concentration at half-maximal activity (AC50) (in general, the concentration giving half of the maximal activity seen) fell in the range of 500 to 1000 nM.

As for `O=C(c1nc2ccccc2s1)N1CCc2[nH]cnc2[C@@H]1c1cc2c(C(F)F)cccn2n1` [Example 2023, (R)-benzo[d]thiazol-2-yl(4-(4-(difluoromethyl)pyrazolo[1,5-a]pyridin-2-yl)-1,4,6,7-tetrahydro-5H-imidazo[4,5-c]pyridin-5-yl)methanone], the half-maximal activity concentration (AC50) was greater than 5000 nM. To `Cc1cccn2nc([C@@H]3c4nc[nH]c4CCN3C(=O)C3CC3)cc12` [Example 2024, (S)-cyclopropyl(4-(4-methylpyrazolo[1,5-a]pyridin-2-yl)-1,4,6,7-tetrahydro-5H-imidazo[4,5-c]pyridin-5-yl)methanone] belongs less than 500 nM. With `Cc1cccn2nc([C@@H]3c4nc[nH]c4CCN3C(=O)[C@H]3CC3(F)F)cc12` [Example 2027, ((R)-2,2-difluorocyclopropyl)((S)-4-(4-methylpyrazolo[1,5-a]pyridin-2-yl)-1,4,6,7-tetrahydro-5H-imidazo[4,5-c]pyridin-5-yl)methanone] the figure was 500 to 1000 nM; with `Cc1cccn2nc([C@@H]3c4nc[nH]c4CCN3C(=O)[C@@H]3CC3(F)F)cc12` [Example 2028, ((S)-2,2-difluorocyclopropyl)((S)-4-(4-methylpyrazolo[1,5-a]pyridin-2-yl)-1,4,6,7-tetrahydro-5H-imidazo[4,5-c]pyridin-5-yl)methanone], less than 500 nM. With `Cc1cccn2nc([C@H]3c4nc[nH]c4CCN3C(=O)[C@@H]3CC3(F)F)cc12` [Example 2029, ((S)-2,2-difluorocyclopropyl)((R)-4-(4-methylpyrazolo[1,5-a]pyridin-2-yl)-1,4,6,7-tetrahydro-5H-imidazo[4,5-c]pyridin-5-yl)methanone] the figure was greater than 5000 nM; with `O=C([C@@H]1CC1(F)F)N1CCc2[nH]cnc2[C@@H]1c1cc2c(F)cccn2n1` [Example 2031, ((S)-2,2-difluorocyclopropyl)((R)-4-(4-fluoropyrazolo[1,5-a]pyridin-2-yl)-1,4,6,7-tetrahydro-5H-imidazo[4,5-c]pyridin-5-yl)methanone], 1000 to 5000 nM. Turning to `O=C(c1cnc(-c2ccccn2)o1)N1CCc2[nH]cnc2[C@H]1c1cc2c(F)cccn2n1` [Example 2032, (S)-(4-(4-fluoropyrazolo[1,5-a]pyridin-2-yl)-1,4,6,7-tetrahydro-5H-imidazo[4,5-c]pyridin-5-yl)(2-(pyridin-2-yl)oxazol-5-yl)methanone], the AC50 is less than 500 nM. With `O=C(c1cnc(-c2ccccn2)o1)N1CCc2[nH]cnc2[C@@H]1c1cc2c(F)cccn2n1` [Example 2033, (R)-(4-(4-fluoropyrazolo[1,5-a]pyridin-2-yl)-1,4,6,7-tetrahydro-5H-imidazo[4,5-c]pyridin-5-yl)(2-(pyridin-2-yl)oxazol-5-yl)methanone] the figure was greater than 5000 nM. Consider `O=C(c1cnc(-c2ccccn2)o1)N1CCc2[nH]cnc2[C@H]1c1cc2c(C(F)F)cccn2n1` [Example 2034, (S)-(4-(4-(difluoromethyl)pyrazolo[1,5-a]pyridin-2-yl)-1,4,6,7-tetrahydro-5H-imidazo[4,5-c]pyridin-5-yl)(2-(pyridin-2-yl)oxazol-5-yl)methanone], for which the concentration at half-maximal activity (AC50) was in the range of 500 to 1000 nM. Consider `O=C(c1cnc(-c2ccccn2)o1)N1CCc2[nH]cnc2[C@@H]1c1cc2c(C(F)(F)F)cccn2n1` [Example 2037, (R)-(2-(pyridin-2-yl)oxazol-5-yl)(4-(4-(trifluoromethyl)pyrazolo[1,5-a]pyridin-2-yl)-1,4,6,7-tetrahydro-5H-imidazo[4,5-c]pyridin-5-yl)methanone], for which the AC50 is greater than 5000 nM.

For `O=C(c1ocnc1C1CC1)N1CCc2[nH]cnc2[C@@H]1c1cc2c(Cl)cccn2n1` [Example 2041, (R)-(4-(4-chloropyrazolo[1,5-a]pyridin-2-yl)-1,4,6,7-tetrahydro-5H-imidazo[4,5-c]pyridin-5-yl)(4-cyclopropyloxazol-5-yl)methanone], the AC50 was 1000 to 5000 nM. As to `O=C(c1ocnc1C1CC1)N1CCc2[nH]cnc2[C@H]1c1cc2cccc(Cl)n2n1` [Example 2042, (S)-(4-(7-chloropyrazolo[1,5-a]pyridin-2-yl)-1,4,6,7-tetrahydro-5H-imidazo[4,5-c]pyridin-5-yl)(4-cyclopropyloxazol-5-yl)methanone], the concentration at half-maximal activity (AC50) fell in the range of 500 to 1000 nM.

`O=C(c1ocnc1C1CC1)N1CCc2[nH]cnc2[C@@H]1c1cc2cccc(Cl)n2n1` [Example 2043, (R)-(4-(7-chloropyrazolo[1,5-a]pyridin-2-yl)-1,4,6,7-tetrahydro-5H-imidazo[4,5-c]pyridin-5-yl)(4-cyclopropyloxazol-5-yl)methanone]: the AC50 was 1000 to 5000 nM. `Cn1cc(-c2nnc(C(=O)N3CCc4[nH]cnc4[C@@H]3c3cc4ccccn4n3)s2)cn1` [Example 2044, (R)-(5-(1-methyl-1H-pyrazol-4-yl)-1,3,4-thiadiazol-2-yl)(4-(pyrazolo[1,5-a]pyridin-2-yl)-1,4,6,7-tetrahydro-5H-imidazo[4,5-c]pyridin-5-yl)methanone]: the concentration at half-maximal activity (AC50) was greater than 5000 nM. With `Cn1cc(-c2nnc(C(=O)N3CCc4[nH]cnc4[C@H]3c3cc4ccccn4n3)s2)cn1` [Example 2045, (S)-(5-(1-methyl-1H-pyrazol-4-yl)-1,3,4-thiadiazol-2-yl)(4-(pyrazolo[1,5-a]pyridin-2-yl)-1,4,6,7-tetrahydro-5H-imidazo[4,5-c]pyridin-5-yl)methanone] the figure was 500 to 1000 nM; with `Cc1cccn2nc([C@H]3c4nc[nH]c4CCN3C(=O)c3nnc(-c4cnn(C)c4)s3)cc12` [Example 2046, (R)-(5-(1-methyl-1H-pyrazol-4-yl)-1,3,4-thiadiazol-2-yl)(4-(4-methylpyrazolo[1,5-a]pyridin-2-yl)-1,4,6,7-tetrahydro-5H-imidazo[4,5-c]pyridin-5-yl)methanone], greater than 5000 nM; with `Cc1cccn2nc([C@@H]3c4nc[nH]c4CCN3C(=O)c3nnc(-c4cnn(C)c4)s3)cc12` [Example 2047, (S)-(5-(1-methyl-1H-pyrazol-4-yl)-1,3,4-thiadiazol-2-yl)(4-(4-methylpyrazolo[1,5-a]pyridin-2-yl)-1,4,6,7-tetrahydro-5H-imidazo[4,5-c]pyridin-5-yl)methanone], 500 to 1000 nM. With `O=C(c1nc2ccccc2o1)N1CCc2[nH]cnc2[C@H]1c1cc2ccccn2n1` [Example 2048, (S)-benzo[d]oxazol-2-yl(4-(pyrazolo[1,5-a]pyridin-2-yl)-1,4,6,7-tetrahydro-5H-imidazo[4,5-c]pyridin-5-yl)methanone], the AC50 was 500 to 1000 nM. With `O=C(c1nc2ccccc2o1)N1CCc2[nH]cnc2[C@@H]1c1cc2ccccn2n1` [Example 2049, (R)-benzo[d]oxazol-2-yl(4-(pyrazolo[1,5-a]pyridin-2-yl)-1,4,6,7-tetrahydro-5H-imidazo[4,5-c]pyridin-5-yl)methanone] the figure was greater than 5000 nM; with `O=C(c1nc2ccccc2o1)N1CCc2[nH]cnc2[C@@H]1c1cc2c(F)cccn2n1` [Example 2051, (R)-benzo[d]oxazol-2-yl(4-(4-fluoropyrazolo[1,5-a]pyridin-2-yl)-1,4,6,7-tetrahydro-5H-imidazo[4,5-c]pyridin-5-yl)methanone], greater than 5000 nM. To `O=C(c1nc2ccccc2o1)N1CCc2[nH]cnc2[C@H]1c1cc2c(C(F)F)cccn2n1` [Example 2052, (S)-benzo[d]oxazol-2-yl(4-(4-(difluoromethyl)pyrazolo[1,5-a]pyridin-2-yl)-1,4,6,7-tetrahydro-5H-imidazo[4,5-c]pyridin-5-yl)methanone] belongs 500 to 1000 nM.

With `O=C(c1nc2ccccc2o1)N1CCc2[nH]cnc2[C@@H]1c1cc2c(C(F)F)cccn2n1` [Example 2053, (R)-benzo[d]oxazol-2-yl(4-(4-(difluoromethyl)pyrazolo[1,5-a]pyridin-2-yl)-1,4,6,7-tetrahydro-5H-imidazo[4,5-c]pyridin-5-yl)methanone], the concentration at half-maximal activity (AC50) was greater than 5000 nM. With `O=C(c1nc2ccccc2o1)N1CCc2[nH]cnc2[C@H]1c1cc2c(C(F)(F)F)cccn2n1` [Example 2054, (S)-benzo[d]oxazol-2-yl(4-(4-(trifluoromethyl)pyrazolo[1,5-a]pyridin-2-yl)-1,4,6,7-tetrahydro-5H-imidazo[4,5-c]pyridin-5-yl)methanone], the AC50 is 500 to 1000 nM. Take `O=C(c1nc2ccccc2o1)N1CCc2[nH]cnc2[C@@H]1c1cc2c(C(F)(F)F)cccn2n1` [Example 2055, (R)-benzo[d]oxazol-2-yl(4-(4-(trifluoromethyl)pyrazolo[1,5-a]pyridin-2-yl)-1,4,6,7-tetrahydro-5H-imidazo[4,5-c]pyridin-5-yl)methanone]: the concentration at half-maximal activity (AC50) is greater than 5000 nM. `FC(F)(F)c1nnc(N2CCc3[nH]cnc3[C@@H]2c2cc3c(C4CC4)cccn3n2)o1` [Example 2056, (R)-2-(4-(4-cyclopropylpyrazolo[1,5-a]pyridin-2-yl)-1,4,6,7-tetrahydro-5H-imidazo[4,5-c]pyridin-5-yl)-5-(trifluoromethyl)-1,3,4-oxadiazole]: the AC50 was greater than 5000 nM.

`FC(F)(F)c1nnc(N2CCc3[nH]cnc3[C@H]2c2cc3c(C4CC4)cccn3n2)o1` [Example 2057, (S)-2-(4-(4-cyclopropylpyrazolo[1,5-a]pyridin-2-yl)-1,4,6,7-tetrahydro-5H-imidazo[4,5-c]pyridin-5-yl)-5-(trifluoromethyl)-1,3,4-oxadiazole]: the AC50 was less than 500 nM.
